Values of other authors as cited in patent publication US20170128595A1, “MICROBIAL GROWTH INDICATING MEDICAL DEVICES” (Indicator Systems International, Inc., priority 2013, published 2017).

Settings: fluorescein; ionization equilibrium gives pH-dependent absorption and emission over pH 5 to 9

fluorescein
pKa: 6.4
